In patent US20240166612A1, “ARYLTHIOETHER ACETAMIDE AND RELATED COMPOUNDS AND THEIR USE IN TREATING MEDICAL CONDITIONS” (X-Biotix Therapeutics, Inc., priority 2021, published 2024):
In brackets after ≈: the same amount, converted by molar mass.

Columns and labels:
P. aeruginosa PAO397 = experiment: Broth microdilution MIC, P. aeruginosa PAO397; format: cell-based; details: Pseudomonas aeruginosa, PAO397, 18 h, read-out: PAO397 KO MIC
[1] = system: P. aeruginosa PAO1 ΔmexABoprM; experiment: Broth microdilution MIC, P. aeruginosa PAO1 ΔmexABoprM; format: cell-based; details: Pseudomonas aeruginosa, PAO1, 18 h, read-out: PAO1 KO MIC
Description: Exemplary compounds from the above Examples were tested to determine their minimum inhibitory concentration (MIC) for exemplary strains of Escherichia and Pseudomonas bacteria using broth microdilution methods. Assay procedures and results are described below.
Broth microdilution assays were conducted according to Clinical and Laboratory Standards Institute guidelines (CLSI, M07-A^11: Clinical and Laboratory Standards Institute. Methods for Dilution Antimicrobial Susceptibility Tests for Bacteria that Grow Aerobically; Approved Standard-11th Edition. Wayne, PA: CLSI, 2018). Briefly, bacterial suspensions were adjusted to a density equivalent to a 0.5 McFarland standard and diluted in sterile, cation-adjusted Mueller-Hinton broth (Beckton Dickinson) to yield a final inoculum between 2×10^5 and 8×10^5 colony-forming units (CFU)/mL. An inoculum volume of 98 μL was added to wells containing 2 μL of 2-fold serial dilutions of drug (prepared in DMSO). All inoculated microdilution trays were incubated in ambient air at 37° C. for 18 h. […] Performance of the assay was monitored by the use of laboratory quality-control strains (S. aureus ATCC 29213 and P. aeruginosa ATCC 27853) and levofloxacin, a compound with a defined MIC spectrum, in accordance with CLSI guidelines (CLSI, M100Ed29: Clinical and Laboratory Standards Institute. Performance Standards for Antimicrobial Susceptibility Testing, 29th Edition. Wayne, PA: CLSI, 2018).
Multiple enterobacteriaceae strains were tested, including both wild-type strains and multi-drug resistance pump deficient mutants. Specific strains tested included the following: • Wild-type P. aeruginosa PAO1, • P. aeruginosa PAO1 ΔmexABoprM—Disabled multi-drug efflux system Δ(MexAB-OprM), • P. aeruginosa PAO397—PAO1Δ(mexAB-oprM) Δ(mexCD-oprJ) Δ(mexEF-oprN) Δ(mexJK) Δ(mexXY) ΔopmH, • P. aeruginosa LESB58—Clinical isolate; colistin-resistant, isolated in the United Kingdom in 1988 from a patient with cystic fibrosis • E. coli JW0452-3 (BW25113 JacrA::kan)—Disabled multi-drug efflux system (AcrAB-TolC).
Experimental results are provided in Table 11, which provides MIC values for wild-type P. aeruginosa PAO1 (“PAO1 WT MIC”), P. aeruginosa PAO ΔmexABoprM (“PAO1 KO MIC”), P. aeruginosa PAO397 (“PAO397 KO MIC”), P. aeruginosa LESB58 (“LESB58”), and E. coli JW0452-3 (BW25113 JacrA::kan) (“E. coli KO MIC”).

[2] = target: T1, recombinant LpxA enzyme (P. aeruginosa) (Pseudomonas aeruginosa, UniProt Q9X6P4); experiment: LpxA in vitro substrate acylation assay with RapidFire MS analysis (P. aeruginosa); format: biochemical; details: P. aeruginosa enzyme 0.5 nM, PaACP-C10, 30 min
T1 sequence (Q9X6P4 1-258): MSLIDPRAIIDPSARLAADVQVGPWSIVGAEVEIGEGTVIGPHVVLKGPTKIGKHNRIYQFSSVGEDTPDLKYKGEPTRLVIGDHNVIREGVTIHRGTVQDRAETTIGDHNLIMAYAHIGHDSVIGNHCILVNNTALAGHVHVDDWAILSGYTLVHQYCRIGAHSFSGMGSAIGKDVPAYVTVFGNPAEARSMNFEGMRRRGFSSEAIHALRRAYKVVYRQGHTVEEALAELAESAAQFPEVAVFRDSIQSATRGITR
Description: (§1) Exemplary compounds from the above Examples were tested for ability to inhibit LpxA activity using an in vitro substrate acylation assay with RapidFire™ MS analysis. Assay procedures and results are described below.
(§2) Reactions were carried out in a final volume of 30 μL with 25 mM HEPES (pH 7.3), 150 mM NaCl, 2 mM DTT, 0.01% BSA, 5 μM UDP-GlcNac, recombinant LpxA enzyme (0.5 nM P. aeruginosa or 1.0 nM E. coli, both produced at Evotec), 0.5 μM acyl-transfer reagent (decanoyl P. aeruginosa acyl-carrier protein [PaACP-C10] or myristoyl E. coli acyl-carrier protein [EcACP-C1-4], both produced at Evotec), and 1% DMSO containing test compound. After 30 min incubation at room temperature, reactions were stopped by addition of 30 μL of 10% TCA in water.
(§3) Samples were centrifuged (4350 rpm, 4° C., 5 min), and then subjected to RapidFire™ MS analysis on an Agilent RapidFire 300 coupled to an Agilent 6460 triple-quadrupole mass spectrometer. Analytes were retained on a C4 (type A) cartridge using the following solvents and flow rates: • Pump 1—H2O with 5 mM NH4OAc at 2.0 mL/min, • Pump 2—MeOH/H2O (90/10) at 1.5 mL/min, • Pump 3—MeOH/H2O (90/10) at 0.5 mL/min, and • Pump 4—ACN (organic)/H2O (aqueous). Substrate and product of the reaction were detected in negative mode ESI-MS/MS by MRM (multiple reaction monitoring) of transitions 606.0/385.0 (UDP-GlcNAc substrate) and 776.2/385.0 (UDP-3-O—(R-3-hydroxydecanoyl)-GlcNAc product, for P. aeruginosa LpxA assay) or 832.2/385.0 (UDP-3-O—(R-3-hydroxymyristoyl)-GlcNAc product, for E. coli LpxA assay).
(§4) For IC50 determinations, peak areas of the substrate and product were compared to compute the proportion of product formed by the LpxA enzyme at each compound concentration.

[3] = system: Wild-type P. aeruginosa PAO1; experiment: Broth microdilution MIC, wild-type P. aeruginosa PAO1; format: cell-based; details: Pseudomonas aeruginosa; wild-type P. aeruginosa PAO1, 37° C., 18 h; read-out: PAO1 WT MIC
P. aeruginosa LESB58 = experiment: Broth microdilution MIC, P. aeruginosa LESB58; format: cell-based; details: Pseudomonas aeruginosa; P. aeruginosa LESB58 clinical isolate, colistin-resistant, 37° C., 18 h
[4] = target: recombinant LpxA enzyme (E. coli) (Escherichia coli, UniProt P0A722); experiment: LpxA in vitro substrate acylation assay with RapidFire MS analysis (E. coli); format: biochemical
Description: as §1, §2, §3, §4

Chain of recombinant LpxA enzyme (E. coli) (P0A722 whole entry): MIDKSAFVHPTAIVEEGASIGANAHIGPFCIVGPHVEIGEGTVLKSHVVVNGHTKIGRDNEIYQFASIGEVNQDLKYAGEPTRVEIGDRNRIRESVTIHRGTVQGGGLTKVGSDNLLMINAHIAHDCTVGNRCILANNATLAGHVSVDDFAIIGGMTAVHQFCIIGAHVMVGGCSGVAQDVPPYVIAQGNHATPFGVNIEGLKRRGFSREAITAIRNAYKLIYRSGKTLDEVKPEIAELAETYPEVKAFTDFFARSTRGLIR

SMILES | MIC (P. aeruginosa PAO397) | MIC [1] | IC50 [2] | MIC [3] | MIC (P. aeruginosa LESB58) | IC50 [4]
N#Cc1ccc(CN(Cc2nnc(N)o2)C(=O)CSc2cc(F)ccc2Cl)c(F)c1 [compound 30] | < 1 µg/mL | 1 to 16 µg/mL (≈ 2.22 to 35.6 µM) | < 20 nM | 16 to 64 µg/mL (≈ 35.6 to 142 µM) |  | 
N#Cc1ccc(CN(Cc2nnc(N)o2)C(=O)COc2ccccc2C(F)(F)F)cc1 [compound 33] | < 1 µg/mL | 16 to 64 µg/mL (≈ 37.1 to 148 µM) | 20 to 100 nM | > 64 µg/mL |  | 
N#Cc1ccc(CN(Cc2nnc(N)o2)C(=O)COc2ccccc2Br)cc1 [compound 35] | < 1 µg/mL | 1 to 16 µg/mL (≈ 2.26 to 36.2 µM) | 20 to 100 nM | > 64 µg/mL |  | 
C[C@@H](Oc1ccccc1Cl)C(=O)N(Cc1ccc(C#N)cc1)Cc1nnc(N)o1 [compound 36] | < 1 µg/mL | 16 to 64 µg/mL (≈ 38.8 to 155 µM) | 100 to 1000 nM | > 64 µg/mL | > 64 µg/mL | 
CC(=O)Nc1ccc(CN(Cc2nnc(N)o2)C(=O)CSc2ccccc2Cl)cc1 [compound 44] | 16 to 64 µg/mL (≈ 35.9 to 144 µM) |  | 100 to 1000 nM | > 64 µg/mL |  | > 20000 nM
N#Cc1ccc(CN(Cc2nnc(N)o2)C(=O)CSc2cc(CO)ccc2Cl)cc1 [compound 45] | < 1 µg/mL | 1 to 16 µg/mL (≈ 2.25 to 36 µM) | 20 to 100 nM | > 64 µg/mL |  | 
Cc1cc(C#N)ccc1CN(Cc1nnc(N)o1)C(=O)CSc1ccccc1Cl [compound 48] | < 1 µg/mL | 16 to 64 µg/mL (≈ 37.4 to 150 µM) | 20 to 100 nM | > 64 µg/mL |  | 
N#Cc1ccc(CN(Cc2nnc(N)o2)C(=O)CSc2cc(F)ccc2Cl)cc1 [compound 51] | < 1 µg/mL | 1 to 16 µg/mL (≈ 2.32 to 37 µM) | < 20 nM | > 64 µg/mL | 1 to 16 µg/mL (≈ 2.32 to 37 µM) | 
N#Cc1ccc(CN(Cc2nnn[nH]2)C(=O)CSc2ccccc2Cl)cc1 [compound 54] | 16 to 64 µg/mL (≈ 40.1 to 160 µM) |  |  | > 64 µg/mL |  | > 20000 nM
N#Cc1ccc(CN(Cc2nnc(N)o2)C(=O)CSc2cccc(Cl)c2Cl)c(F)c1 [compound 57] | < 1 µg/mL | 1 to 16 µg/mL (≈ 2.14 to 34.3 µM) | 20 to 100 nM | > 64 µg/mL | 16 to 64 µg/mL (≈ 34.3 to 137 µM) | 
N#Cc1ccc(CN(Cc2nnc(N)o2)C(=O)CSc2ncccc2Cl)c(F)c1 [compound 58] | < 1 µg/mL | 1 to 16 µg/mL (≈ 2.31 to 37 µM) | 20 to 100 nM | > 64 µg/mL | > 64 µg/mL | 
Cc1ncc(CN(Cc2ccc(C#N)cc2)C(=O)CSc2ccccc2Cl)o1 [compound 73] | 1 to 16 µg/mL (≈ 2.43 to 38.8 µM) |  | 100 to 1000 nM | > 64 µg/mL |  | > 20000 nM
Cc1nnc(CN(Cc2ccc(C#N)cc2)C(=O)CSc2ccccc2Cl)[nH]1 [compound 74] | 1 to 16 µg/mL (≈ 2.43 to 38.8 µM) | 16 to 64 µg/mL (≈ 38.8 to 155 µM) | 100 to 1000 nM | > 64 µg/mL |  | 
